{"source": "paper PMC10208956", "about": "“Microbial peptides activate tumour-infiltrating lymphocytes in glioblastoma” (Nature, 2023)", "type_in_all_cases": "cell-based, human", "key": {"TCC8F7": {"test_system": "TCC8F7", "assay": "Proliferation of TCC8F7, 3H-thymidine (SI), 3 days", "conditions": "irradiated autologous PBMCs as APCs, Extended Data Fig. 5d"}, "TCC88": {"test_system": "TCC88", "assay": "Cytokine and chemokine secretion of TCC88 after peptide stimulation", "conditions": "TCC88 supernatant after peptide stimulation; no peptide control subtracted; Fig. 3e", "source_text": "Fig. 3 Bacteria-derived and microbiota-derived peptides can stimulate TCC88 as well as the tumour antigen. a, Peptides with the highest predicted stimulatory scores were identified by searching various databases (see Methods). Numbers of unique 10-mer peptides within each database, synthesized peptides, TCC88 stimulatory peptides and the corresponding percentage of stimulatory peptides within each database are shown. […] Cytokine and chemokine secretion of TCC88 was examined and compared upon stimulation with these three different antigens. A specific amount of each cytokine and chemokine (pg ml^−1) was calculated by subtracting the cytokines in the negative control cultures (no peptide control). f, Cytotoxicity of TCC88 against the autologous tumour cell line after stimulation with 2 µM of SIN3A* and HGM3 (data represent the mean percentage of two replicate wells). E:T, effector to target. g, TCC88 was tested with HGM3 (10 µM) or SIN3A* (10 µM) peptides or both together (each 10 µM), and ^3H-thymidine incorporation was measured after 3 days (data represent the mean SI value of three replicate wells ± s.e.m.). Also see Extended Data Figs. 3 and 4. Source data\nSupernatants from each experiment were harvested a day before adding thymidine and frozen at −20 °C. Cytokines were measured using ELISA for human IFNγ ELISA MAX (BioLegend), human GM-CSF DuoSet ELISA (R&D Systems) and bead-based assays. A Synergy H1 hybrid multi-mode reader (Agilent) was used to measure the absorbance. The LEGENDplex Multi-analyte Flow Assay kit (BioLegend) is a 13-plex human TH cytokine panel, which includes IFNγ, TNF, IL-2, IL-4, IL-5, IL-6, IL-9, IL-10, IL-13, IL-17A, IL-17F, IL-21 and IL-22. […] LSR Fortessa Flow Cytometer (BD Biosciences) was used to measure cytokines, and data were analysed using FlowJo (Tree Star). The Human XL Cytokine Luminex Performance Assay Fixed Panel (R&D Systems) contains 45 analytes covering a broad range of various chemokines and cytokines."}, "[1]": {"test_system": "isolated TIL-derived CD4+ TCCs", "assay": "All isolated TCCs tested against SIN3A* peptide: IFNγ ELISA", "set-up": "unit not given beside the values"}}, "data": [{"substance": "Ac-QPVEFNHAIHYVN-NH2 [SIN3A*]", "values": [{"measurement": "response of TCC8F7 (in words)", "setting": "TCC8F7", "value": "strongly responds"}, {"measurement": "CCL20/MIP-3α", "setting": "TCC88", "value": 15.37, "unit": "pg/mL"}, {"measurement": "CD40 Ligand", "setting": "TCC88", "value": 2926.92, "unit": "pg/mL"}, {"measurement": "CXCL1/GROα", "setting": "TCC88", "value": 71.75, "unit": "pg/mL"}, {"measurement": "CXCL2/GROβ", "setting": "TCC88", "value": 125.05, "unit": "pg/mL"}, {"measurement": "CXCL8/IL-8", "setting": "TCC88", "value": 0, "unit": "pg/mL"}, {"measurement": "CXCL10/IP-10", "setting": "TCC88", "value": 22.77, "unit": "pg/mL"}, {"measurement": "Flt-3 Ligand", "setting": "TCC88", "value": 138.99, "unit": "pg/mL"}, {"measurement": "Fractalkine", "setting": "TCC88", "value": 649.3, "unit": "pg/mL"}, {"measurement": "GM-CSF", "setting": "TCC88", "value": 12306.4, "unit": "pg/mL"}, {"measurement": "Granzyme B", "setting": "TCC88", "value": 3726.29, "unit": "pg/mL"}, {"measurement": "IFN-α", "setting": "TCC88", "value": 6.21, "unit": "pg/mL"}, {"measurement": "IFN-γ", "setting": "TCC88", "value": 2158.92, "unit": "pg/mL"}, {"measurement": "IL-1rα", "setting": "TCC88", "value": 2936.96, "unit": "pg/mL"}, {"measurement": "IL-1α", "setting": "TCC88", "value": 18.71, "unit": "pg/mL"}, {"measurement": "IL-1β", "setting": "TCC88", "value": 19.49, "unit": "pg/mL"}, {"measurement": "IL-2", "setting": "TCC88", "value": 1202.18, "unit": "pg/mL"}, {"measurement": "IL-3", "setting": "TCC88", "value": 486.43, "unit": "pg/mL"}, {"measurement": "IL-4", "setting": "TCC88", "value": 244.81, "unit": "pg/mL"}, {"measurement": "IL-5", "setting": "TCC88", "value": 13.04, "unit": "pg/mL"}, {"measurement": "IL-6", "setting": "TCC88", "value": 272.8, "unit": "pg/mL"}, {"measurement": "IL-7", "setting": "TCC88", "value": 2.58, "unit": "pg/mL"}, {"measurement": "IL-10", "setting": "TCC88", "value": 469.8, "unit": "pg/mL"}, {"measurement": "IL-12p70", "setting": "TCC88", "value": 34.04, "unit": "pg/mL"}, {"measurement": "IL-13", "setting": "TCC88", "value": 1544.08, "unit": "pg/mL"}, {"measurement": "IL-15", "setting": "TCC88", "value": 2.67, "unit": "pg/mL"}, {"measurement": "IL-17A", "setting": "TCC88", "value": 3.91, "unit": "pg/mL"}, {"measurement": "IL-17E/IL-25", "setting": "TCC88", "value": 6.04, "unit": "pg/mL"}, {"measurement": "IL-33", "setting": "TCC88", "value": 26.68, "unit": "pg/mL"}, {"measurement": "TNF-α", "setting": "TCC88", "value": 10260.2, "unit": "pg/mL"}, {"measurement": "ΔIFN-γ", "setting": "[1]; TCC4, sheet 2b", "value": 149.53}, {"measurement": "ΔIFN-γ", "setting": "[1]; TCC11, sheet 2b", "value": 677.024}, {"measurement": "ΔIFN-γ", "setting": "[1]; TCC12, sheet 2b", "value": 3046.79}, {"measurement": "ΔIFN-γ", "setting": "[1]; TCC13, sheet 2b", "value": 3192.25}, {"measurement": "ΔIFN-γ", "setting": "[1]; TCC15, sheet 2b", "value": 3025.62}, {"measurement": "ΔIFN-γ", "setting": "[1]; TCC16, sheet 2b", "value": 180.455}, {"measurement": "ΔIFN-γ", "setting": "[1]; TCC20, sheet 2b", "value": 364.759}, {"measurement": "ΔIFN-γ", "setting": "[1]; TCC29, sheet 2b", "value": 1013.6}, {"measurement": "ΔIFN-γ", "setting": "[1]; TCC31, sheet 2b", "value": 514.2}, {"measurement": "ΔIFN-γ", "setting": "[1]; TCC33, sheet 2b", "value": 2998.1}, {"measurement": "ΔIFN-γ", "setting": "[1]; TCC35, sheet 2b", "value": 228.964}, {"measurement": "ΔIFN-γ", "setting": "[1]; TCC38, sheet 2b", "value": 2702.02}, {"measurement": "ΔIFN-γ", "setting": "[1]; TCC43, sheet 2b", "value": 1674.62}, {"measurement": "ΔIFN-γ", "setting": "[1]; TCC47, sheet 2b", "value": 2470.16}, {"measurement": "ΔIFN-γ", "setting": "[1]; TCC52, sheet 2b", "value": 3139.72}, {"measurement": "ΔIFN-γ", "setting": "[1]; TCC56, sheet 2b", "value": 642.429}, {"measurement": "ΔIFN-γ", "setting": "[1]; TCC57, sheet 2b", "value": 2874.97}, {"measurement": "ΔIFN-γ", "setting": "[1]; TCC60, sheet 2b", "value": 2990.72}, {"measurement": "ΔIFN-γ", "setting": "[1]; TCC63, sheet 2b", "value": 2437.29}, {"measurement": "ΔIFN-γ", "setting": "[1]; TCC64, sheet 2b", "value": 999.502}, {"measurement": "ΔIFN-γ", "setting": "[1]; TCC68, sheet 2b", "value": 1874.1}, {"measurement": "ΔIFN-γ", "setting": "[1]; TCC71, sheet 2b", "value": 665.867}, {"measurement": "ΔIFN-γ", "setting": "[1]; TCC74, sheet 2b", "value": 114.375}, {"measurement": "ΔIFN-γ", "setting": "[1]; TCC75, sheet 2b", "value": 2585.8}, {"measurement": "ΔIFN-γ", "setting": "[1]; TCC76, sheet 2b", "value": 3066.75}, {"measurement": "ΔIFN-γ", "setting": "[1]; TCC80, sheet 2b", "value": 218.522}, {"measurement": "ΔIFN-γ", "setting": "[1]; TCC88, sheet 2b", "value": 3049.73}, {"measurement": "ΔIFN-γ", "setting": "[1]; TCC90, sheet 2b", "value": 3011.57}, {"measurement": "ΔIFN-γ", "setting": "[1]; TCC91, sheet 2b", "value": 1519.81}, {"measurement": "ΔIFN-γ", "setting": "[1]; TCC92, sheet 2b", "value": 2090.54}, {"measurement": "ΔIFN-γ", "setting": "[1]; TCC93, sheet 2b", "value": 2670.59}, {"measurement": "ΔIFN-γ", "setting": "[1]; TCC94, sheet 2b", "value": 2350.89}, {"measurement": "ΔIFN-γ", "setting": "[1]; TCC96, sheet 2b", "value": 2552.89}, {"measurement": "ΔIFN-γ", "setting": "[1]; TCC97, sheet 2b", "value": 2298.23}, {"measurement": "ΔIFN-γ", "setting": "[1]; TCC98, sheet 2b", "value": 2713.07}, {"measurement": "ΔIFN-γ", "setting": "[1]; TCC99, sheet 2b", "value": 3298.51}, {"measurement": "ΔIFN-γ", "setting": "[1]; TCC101, sheet 2b", "value": 3002.86}, {"measurement": "ΔIFN-γ", "setting": "[1]; TCC102, sheet 2b", "value": 3070.31}, {"measurement": "ΔIFN-γ", "setting": "[1]; TCC103, sheet 2b", "value": 2311.95}, {"measurement": "ΔIFN-γ", "setting": "[1]; TCC104, sheet 2b", "value": 2494.03}, {"measurement": "ΔIFN-γ", "setting": "[1]; TCC107, sheet 2b", "value": 2341.01}, {"measurement": "ΔIFN-γ", "setting": "[1]; TCC109, sheet 2b", "value": 2148.29}, {"measurement": "ΔIFN-γ", "setting": "[1]; TCC110, sheet 2b", "value": 2115.13}, {"measurement": "ΔIFN-γ", "setting": "[1]; TCC111, sheet 2b", "value": 2750.31}, {"measurement": "ΔIFN-γ", "setting": "[1]; TCC112, sheet 2b", "value": 334.245}, {"measurement": "ΔIFN-γ", "setting": "[1]; TCC113, sheet 2b", "value": 2127.79}, {"measurement": "ΔIFN-γ", "setting": "[1]; TCC114, sheet 2b", "value": 270.204}, {"measurement": "ΔIFN-γ", "setting": "[1]; TCC115, sheet 2b", "value": 2141.31}, {"measurement": "ΔIFN-γ", "setting": "[1]; TCC116, sheet 2b", "value": 2065.23}, {"measurement": "ΔIFN-γ", "setting": "[1]; TCC117, sheet 2b", "value": 2609.06}, {"measurement": "ΔIFN-γ", "setting": "[1]; TCC120, sheet 2b", "value": 5141.59}, {"measurement": "ΔIFN-γ", "setting": "[1]; TCC121, sheet 2b", "value": 3587.93}, {"measurement": "ΔIFN-γ", "setting": "[1]; TCC124, sheet 2b", "value": 8256.17}, {"measurement": "ΔIFN-γ", "setting": "[1]; TCC125, sheet 2b", "value": 202.234}, {"measurement": "ΔIFN-γ", "setting": "[1]; TCC126, sheet 2b", "value": 7530.28}, {"measurement": "ΔIFN-γ", "setting": "[1]; TCC127, sheet 2b", "value": 9381.79}, {"measurement": "ΔIFN-γ", "setting": "[1]; TCC128, sheet 2b", "value": 4427.79}, {"measurement": "ΔIFN-γ", "setting": "[1]; TCC129, sheet 2b", "value": 4034.06}, {"measurement": "ΔIFN-γ", "setting": "[1]; TCC130, sheet 2b", "value": 4723.17}, {"measurement": "ΔIFN-γ", "setting": "[1]; TCC131, sheet 2b", "value": 125.708}, {"measurement": "ΔIFN-γ", "setting": "[1]; TCC132, sheet 2b", "value": 7560.44}, {"measurement": "ΔIFN-γ", "setting": "[1]; TCC133, sheet 2b", "value": 4444.38}, {"measurement": "ΔIFN-γ", "setting": "[1]; TCC134, sheet 2b", "value": 2468}, {"measurement": "ΔIFN-γ", "setting": "[1]; TCC135, sheet 2b", "value": 4703.02}, {"measurement": "ΔIFN-γ", "setting": "[1]; TCC137, sheet 2b", "value": 3613.61}, {"measurement": "ΔIFN-γ", "setting": "[1]; TCC138, sheet 2b", "value": 0}]}]}
